Earlier results in patent US20130156896A1, “CELLULOSE-BASED FOOD CASING HAVING A FUNGICIDAL FINISH AND A METHOD FOR PROTECTING CELLULOSE-BASED FOOD CASINGS FROM MOLD INFESTATION” (CASETECH GMBH, priority 2011, published 2013).

Experiments:
microorganisms = conditions: known from the literature
[1] = animal testing
Staphylococcus aureus = conditions: for example against Staphylococcus aureus

Compound | activity against microorganisms (microorganisms) | chemoprotective effect against carcinogens [1] | antimicrobial activity (Staphylococcus aureus)
COc1ccc(O)c(C(C)(C)C)c1 [BHA, butylated hydroxyanisole] | relatively weak activity | – | –
CC(C)c1cc2c(c(O)c1O)[C@@]1(C(=O)O)CCCC(C)(C)[C@@H]1CC2 [carnosic acid] | – | chemoprotective effect | antimicrobial activity
